These results are taken from patent US12629415B2, “Vaccine adjuvants” (THE PROVOST, FELLOWS, FOUNDATION SCHOLARS, AND THE OTHER …, priority 2018, dated 2026).

Entries after “also recorded” stand apart in the source; their conditions may differ.

The test system of test [1] is bovine PBMCs. Put plainly: Real-time PCR of gene expression in bovine PBMCs. To be noted: for IFN-α gene expression / IFN-β gene expression: vs unstimulated cells; for ISG-15 expression: after 12 hours (text), 6 hours (FIG. 23 legend). It is filed as cell-based, cattle. As for the experimental part: RNA extraction was conducted using Trizol and an RNeasy Plus Mini Kit (Qiagen Ltd). Tissue culture plates of stimulated cells were spun and supernatants were extracted while the remaining adherent cells were lysed using Trizol. Chloroform (200 μl per 1 ml of Trizol) was then added to the cell lysates and mixed vigorously before being centrifuged at 12000 g for 15 minutes at 4° C. The resulting aqueous layer of RNA was transferred to another tube containing 1 volume of ethanol. The mixture was then added to an RNeasy column and processed according to the manufacturer's instructions (Qiagen Ltd). After rigorous purification, the RNA was isolated and quantified using NanoDrop ND-1000 UV-Vis Spectrophotometer (NanoDrop Technologies Inc.). Finally the samples were stored at −80° C.
RNA was converted to cDNA using a High-Capacity cDNA Reverse transcription Kit (Applied Biosystems). Components needed for reverse transcriptase included RNA, RT 5× buffer, RNase Out, random hexamers, dNTP's and reverse transcriptase. The process was conducted under the following conditions: 25° C. for 10 minutes, 42° C. for 60 minutes, 95° C. for 3 minutes and hold at 4° C. The resulting cDNA was stored at −20° C.
Using, SYBR Green intercalating dye (Applied Biosystems Ltd), qRT-PCR was performed using Applied Biosystems 7500 Fast Real-Time PCR System. Each well on the qRT-PCR plate was comprised of SYBR Green dye, nuclease free H2O, cDNA, forward and reverse primers. Two negative controls were included to ensure no contamination was present. The cycle parameters of the process were: 95° C. for 20 seconds, 40 cycles at 95° C. for 3 seconds, 60° C. for 30 seconds followed by the dissociation steps which were: 95° C. for 15 seconds, 60° C. for 60 seconds, 95° C. for 15 seconds and 60° C. for 15 seconds. The Ct (threshold cycle) values from both the target and reference gene were used to measure the concentration of the target gene in the PCR reaction.
(In general: In qPCR the cycle at which signal appears reflects the starting amount.)

The next test relates to PBMCs or CBMCs. Put plainly: CXCL10 (IP-10) ELISA. The conditions noted are these: CBMCs compared with PBMCs. In kind it is cell-based, human. How it is done: Poly(I:C) (5 μg/ml) (Invivogen), Poly(dA:dT) (5 μg/ml) (Sigma-Aldrich), 2′3′ cGAMP (10 μg/ml), 5′ triphosphate double stranded RNA (5′ ppp dsRNA) (2.5 μg/ml) and HSV-60 (2 μg/ml) (all from Invivogen) were transfected into PBMCs or CBMCs using TransIT-X2 (Mirus).
Measurement of cytokines—HEK Blue TNFα/IFNα/β Assays were performed as per the manufacturer's (Invivogen) instructions using Quanti-Blue Detection Reagent. SEAP levels were determined using a spectrophotometer plate reader at 630 nm. IFNα (3425-1H-6, Mabtech) and IP-10 (DY266, R&D Systems) were detected by sandwich ELISA. IFNα ELISA used pan specific IFNα antibodies, which allows detection of IFNα subtypes 1/13, 2, 4, 5, 6, 7, 8, 10, 14, 16 and 17. BioLegend LEGENDplex™ Human Inflammation Panel (13-plex) was carried out as per manufacturer's (Biolegend) instructions to determine levels of IFNγ, IL-10, IL-12p70 and IL-23. A BD LSR Fortessa cell analyser was used to acquire samples and BioLegend LEGENDplex™ software was used for analysis.
Background: In an ELISA, binding on a coated surface is turned into a signal by an enzyme label.

The test system of test [2] is bovine PBMCs. Put plainly: Bovine IFN-γ ELISA on stimulated PBMCs. It is filed as cell-based, cattle. The conditions noted are these: 72 hours; for IFN-γ secretion by ConA stimulated PBMCs from 2 month old calves: ConA 1 μg/ml, polydA:dT 1 μg/ml; for IFN-γ secretion by ConA stimulated bovine PBMCs: calves <1 year old, ConA 1 μg/ml with or without LPS 100 pg/ml; for IFN-γ secretion by PBMCs from neonatal calves, time course: same 5 calves from 1 to 5 months of age, ConA with or without LPS. How it is done: Bovine peripheral blood mononuclear cells were isolated from whole blood samples collected in 9m1 vacutainers containing Heparin anticoagulant. PBMCs were spun and separated using leucosep tubes (Cruinn) and a density gradient histopaque 1077 (Sigma-Aldrich) at a speed of 1200 g for 20 minutes. Red blood cell contamination was eliminated using sterile 0.25% sodium chloride (Baxter) as a lysis buffer. The cells were subsequently washed twice in PBS at a speed of 600 g for 10 minutes to remove impurities.
Cells were counted using a haemocytometer, microscope and trypan blue (Sigma Aldrich) and seeded at appropriate densities in tissue culture plates (Cruinn) containing media. The cells were incubated at 37° C. at 5% CO2 treated within hours of plating to avoid unwanted cell death.
When analysing the effects of IL-1β on T cell activation, cells were pre-treated with 250 μg/ml of IL-1 receptor antagonist (IL-1Ra) 40 minutes before stimulation with IL-1β (25 ng/ml). Cells were subsequently stimulated with concanavalin A (1 μg/ml) 1 hour after addition of IL-1β. Similarly, when analysing the effects of polydA:dT on T cell activation, cells were stimulated with polydA:dT (1 μg/ml) 1 hour before ConA treatment (1 μg/ml). LPS (100 pg/ml) primed cells were incubated with YVAD-FMK (10 μm), an inhibitor specific for caspase-1. After 40 minutes, the cells were stimulated with alum (50 μg/ml) for 24 hours and supernatants were then harvested and analysed by ELISA for IL-1β
Capture antibodies (50 μl/well), diluted in the appropriate buffers, were dispensed into the wells of high binding plates (Greiner Bio-One) and incubated overnight at room temperature or 4° C. For analysis of IL-17, the ELISA plates were pre-coated with capture antibody by the manufacturing before delivery. The wells were washed with PBS/Tween 3 times and the plates were then incubated with 150 μl of blocking buffer for 1 hour at room temperature. The plates were washed again before supernatant (neat or diluted) and recombinant standards were added for 1 hour at room temperature. Following this, the plates were washed and 50 μl of detection antibody was added to the wells for a period of 1 or 2 hours at room temperature. After washing, 50 μl diluted streptavidin-HRP was added to the plate for between 30 minutes and 1 hour. After the final wash, 50 μl of 3,3′-, 5,5′-Tetramethylbenzidine (TMB) substrate was added and the plates were incubated in the dark. The reaction was stopped by addition of 1M sulphuric acid and the absorbance readings were measured at 450 nm using a microtitre plate reader. The cytokine concentrations were calculated using a linear regression standard curve from recombinant cytokines of known concentration. Skanit™ software was used to estimate values.

Setting [3] is: polydA:dT 1 μg/ml, 6 hours, listed as PolydA:dT.
The mark [4] stands for this setting: polydA:dT 1 μg/ml, 6 hours, listed as poly(dA:dT).
Where [5] appears, read: polydA:dT 1 μg/ml, 6 hours, listed as polydA:dT.

For “poly(deoxyadenylic-thymidylic) acid [Poly(dA:dT)]”, the IFI-16 expression result in the test with bovine PBMCs [1] (polydA:dT 1 μg/ml transfected, 12 hours) is reported as “enhanced in response to polydA:dT; also recorded: regulates IFI-16 expression; also recorded: IFI-16 expression is enhanced by polydA:dT”. The IL-18 expression result in the test with bovine PBMCs [1] (polydA:dT 1 μg/ml, 6 hours) was “enhanced by polydA:dT; also recorded: increased in response to polydA:dT after 6 hours; also recorded: can drive enhanced IL-18 expression; also recorded: increased the expression of IL-18; also recorded: robust driver of IL-1β secretion and IL-18 expression in cattle”. Moreover, the IFN-α gene expression entry was “increases type I IFN expression by bovine PBMCs; also recorded: enhanced IFN-α, IFN-β and ISG-15 expression by bovine PBMCs” in the test with bovine PBMCs [1] (setting [3]); “enhanced type 1 interferon secretion” in the test with bovine PBMCs [1] (setting [4]); “enhanced after 6 hours in comparison to unstimulated cells; also recorded: increases IFN-α and IFN-β expression in bovine PBMCs” in the test with bovine PBMCs [1] (setting [5]). The IFN-β gene expression result with bovine PBMCs [1] (setting [3]) is “increases type I IFN expression by bovine PBMCs; also recorded: enhanced IFN-α, IFN-β and ISG-15 expression by bovine PBMCs”; in the test with bovine PBMCs [1] (setting [4]) it was “enhanced type 1 interferon secretion”; in the test on bovine PBMCs [1] (setting [5]), “enhanced after 6 hours in comparison to unstimulated cells; also recorded: increases IFN-α and IFN-β expression in bovine PBMCs”. Further, the ISG-15 expression result in the test with bovine PBMCs [1] (polydA:dT 1 μg/ml, listed as PolydA:dT) is “enhanced IFN-α, IFN-β and ISG-15 expression by bovine PBMCs”; in the test with bovine PBMCs [1] (polydA:dT 1 μg/ml, listed as polydA:dT) it was “increased in response polydA:dT after 12 hours; also recorded: ISG-15 expression is increased in bovine PBMCs”. The CXCL10 protein secretion result in the test with PBMCs or CBMCs is “no significant difference in the CXCL10 response between PBMCs or CBMCs”. The “IFN-γ secretion by ConA stimulated PBMCs from 2 month old calves” value was “drives enhanced IFN-γ secretion in calves aged <1 year old” in the test on bovine PBMCs [2] (listed as PolydA:dT) and “strongly enhanced IFN-γ production” in the test with bovine PBMCs [2] (listed as poly(dA:dT)). For the same substance, the “IFN-γ secretion by ConA stimulated bovine PBMCs” value was “promotes type 1 interferon dependent enhancement of interferon gamma production in PBMCs” with bovine PBMCs [2]; “promotes type 1 interferon dependent enhancement of interferon gamma production in PBMCs” in the test on bovine PBMCs [2] (listed as Poly (deoxyadenylic-thymidylic) acid); “strongly enhanced IFN-γ production by PBMCs from adult (8 months old) animals” in the test with bovine PBMCs [2] (listed as poly (dA:dT)); “increase in IFN-γ secretion; also recorded: increased capacity to secrete IFN-γ in response to polydA:dT, although the difference was only significant when cells were primed with LPS” with bovine PBMCs [2] (listed as polydA:dT). The “IFN-γ secretion by PBMCs from neonatal calves, time course” value with bovine PBMCs [2] (listed as PolydA:dT) was “drives enhanced IFN-γ by cells from neonatal calves”; in the test with bovine PBMCs [2] (listed as polydA:dT), “overcomes the deficiency in interferon gamma production in neonatal cattle; also recorded: significantly enhanced in response to polydA:dT; also recorded: most evident in the first 2 months of life after which the enhancement was not statistically significant; also recorded: significant increase in IFN-γ secretion at 1 and 2 months in the presence or absence of LPS; also recorded: ability to drive enhanced IFN-γ from PBMCs of calves aged 1-2 months”.
